Assay results published in ChEMBL document CHEMBL1140090, “Discovery of orally bioavailable 1,3,4-trisubstituted 2-oxopiperazine-based melanocortin-4 receptor agonists as potential antiobesity agents” (J Med Chem, 2008).

Columns and labels:
in vitro [1] = conditions: human, Caco-2
in vitro [2] = conditions: human, Caco-2; remark: listed apart in the source

Papp (in vitro [1]) [×10⁻⁶ cm/s] | Papp A→B (in vitro [2]) [×10⁻⁶ cm/s] | SMILES
0.333 | 0.333 | CNC(=O)[C@H](Cc1ccc2ccccc2c1)N1CCN(C(=O)[C@H](N)Cc2ccc(F)cc2)[C@@H](CCNC(=N)N)C1=O
15.2 | 6.5 | C=CC[C@H]1C(=O)N([C@@H](Cc2ccc3ccccc3c2)C(=O)NC)CCN1C(=O)[C@H](N)Cc1ccc(F)cc1
